Test results from patent US12673955B2, “Crystal form of p-toluenesulfonate salt of diazabicyclic compound and preparation method therefor” (CRYSTAL PHARMATECH CO., LTD., priority 2020, dated 2026).

What was measured:
Assay type in all cases: physicochemical
[1] = Compressibility of crystalline form (manual tablet press, 350 MPa)
Procedure: A manual tablet press was used for tabletting. Appropriate amount of tosylate Form A and solid in the prior art were compressed by circle punches under 350 MPa pressure to form a tablet. Hardness (H) of the tablet was determined to be 18.36 N by a tablet hardness tester. Diameter (D) and thickness (L) of the tablet were determined to be 6 mm and 1.02 mm by a vernier caliper, respectively. The tensile strength of the tablets was calculated to be 1.9 MPa through the equation of T=2H/πDL.

[2] = Stability study of tosylate Form A (XRPD and chemical impurity after storage)
Procedure: Approximately 10 mg of tosylate Form A were stored under different conditions of 25° C./60% RH and 40° C./75% RH. XRPD and chemical impurity were checked at 1 week, 2 weeks, 4 weeks and 8 weeks.
Based on the above results, tosylate Form A kept stable for at least 8 weeks.

[3] = PSD test (laser particle size analyzer, wet method)
Procedure: The particle size distribution results of the present disclosure were collected on S3500-type laser particle size analyzer of the Microtrac company. The Microtrac S3500 was equipped with an SDC (Sample Delivery Controller) sampling system. The wet method was used in this test, using Isopar G (containing 0.2% lecithin) as the test dispersion medium. The process parameters of the laser particle size analyzer were as follows.
Approximately 10-30 mg of tosylate Form A solid was added into 10 mL of Isopar G (containing 0.2% lecithin). The mixture was mixed thoroughly and transferred into the SDC. The experiment was started when the obscuration is in appropriate range. The particle size distribution (PSD) was tested before and after 30 seconds of ultrasound.

[4] = Hygroscopicity study by dynamic vapor sorption (DVS)
Procedure: The dynamic vapor sorption diagrams of the present disclosure were collected on Intrinsic-type and Intrinsic Plus-type dynamic vapor sorption instruments of SMS company. The parameters of the dynamic vapor sorption test of the present disclosure were as follows: • Temperature: 25° C. • Protection gas and flow rate: N2, 200 m L/min • dm/dt: 0.002%/min • Minimum dm/dt equilibration time: 10 min • Maximum Equilibration Time: 180 min • Relative humidity range: 0% RH-95% RH-0% RH • Relative humidity gradient: 10% (0% RH-90% RH-0% RH), 5% (90% RH-95% RH and 95% RH-90% RH).
Dynamic vapor sorption (DVS) was applied to test hygroscopicity of tosylate Form A solid and solid in the prior art with about 10 mg of samples. XRPD patterns were collected.
Non-hygroscopic or almost non hygroscopic: increase in mass is less than 0.2 percent.

[5] = Solubility of crystalline form (saturated solutions measured by HPLC); details: for solubility at 1 h / solubility at 2 h / solubility at 4 h / solubility at 24 h: thermodynamic from solid
Procedure: Tosylate Form A and solid in the prior art were suspended into SGF, FaSSIF, FeSSIF and water to get saturated solutions. After equilibrated for 1 hour, 2 hours, 4 hours and 24 hours, concentrations of the saturated solutions were measured by HPLC.

[6] = Adhesiveness propensity study (material sticking to the punch); details: 8 mm round tooling, 10 kN, 30 s
Procedure: Approximately 30 mg of tosylate Form A and the solid in the prior art were weighed and then added into the dies of 8 mm round tooling, compressed at 10 kN pressure and held for 30 s. The punch was weighed and amount of material sticking to the punch was calculated. The compression was repeated once and the cumulative amount, maximum amount and average amount of material sticking to the punch during the compression were recorded.

[7] = Intrinsic dissolution of crystalline form; details: pH 6.8 phosphate buffer, 900 mL, 37° C., paddle, tablet surface 0.5 cm^2
Procedure: The intrinsic dissolution rate data of the present disclosure were collected on an Agilent 708DS-type dissolution apparatus of the Agilent company. The intrinsic dissolution test conditions were as follows.
Approximately 100 mg of tosylate Form A and the solid in the prior art were added into the cavity of the die, and then compressed at 5 KN and held for 1 minute to obtain a tablet having a surface area of 0.5 cm^2.

[8] = Crystal habit by polarized light microscopy
Text: The polarized light microscope photos of the present disclosure were taken at room temperature with a Zeiss microscope Axio Scope.A1 equipped with an Axiocam 305 color camera and 5×, 10×, 20× and 50× objective lenses.

[9] = 25° C./60% RH and 40° C./75% RH, up to 8 weeks
[10] = Isopar G containing 0.2% lecithin

Cn1cc(Nc2nccc(N3C[C@H]4CC[C@@H](C3)N4C(=O)[C@@H]3CC3(F)F)n2)cn1 [tosylate Form A, ((1S)-2,2-difluorocyclo-propyl) ((1R,5S)-3-(2-((1-methyl-1H-pyrazol-4-yl)amino)pyrimidin-4-yl)-3,8-diazabicyclo[3.2.1]octan-8-yl)methanone]
compressibility ([1]; 350 MPa pressure): good compressibility
tensile strength of the tablets ([1]; calculated by T=2H/πDL, tablet compressed under 350 MPa): 1.9 MPa
Hardness (H) of the tablet ([1]; tablet compressed under 350 MPa, diameter 6 mm, thickness 1.02 mm): 18.36 N
time kept stable ([2]; 25° C./60% RH and 40° C./75% RH): at least 8 weeks
Crystalline state after storage [2, 9]: doesn't change
chemical purity after storage [2, 9]: above 99%
Puriy ([2]; 25° C./60% RH, 1 week): 99.92%
Puriy ([2]; 25° C./60% RH, 2 weeks): 100.0%
Puriy ([2]; 25° C./60% RH, 4 weeks): 99.89%
Puriy ([2]; 25° C./60% RH, 8 weeks): 99.92%
Puriy ([2]; 40° C./75% RH, 1 week): 99.90%
Puriy ([2]; 40° C./75% RH, 2 weeks): 99.91%
Puriy ([2]; 40° C./75% RH, 4 weeks): 99.90%
Puriy ([2]; 40° C./75% RH, 8 weeks): 99.91%
change of particle size distribution after sonication ([3]; 30 seconds of ultrasound): no obvious change or agglomeration
mean particle size (MV) [3, 10]: 400 μm
particle size distribution shape [3, 10]: unimodal distribution
form change after DVS test (XRPD) ([4]; 0% RH-95% RH-0% RH, 25° C.): no obvious form change
hygroscopicity class ([4]; Chinese Pharmacopoeia 2015 definition, from DVS weight gain at 80% RH): slightly hygroscopic
weight gain (DVS) ([4]; at 80% RH, 25° C.): 0.35%
hygroscopicity compared with the prior art ([4]; versus solid in the prior art): relatively lower hygroscopicity
solubility compared with solid in the prior art ([5]; SGF, FaSSIF, FeSSIF and water): higher than that of solid in the prior art
solubility at 1 h ([5]; simulated gastric fluid, SGF): 5540 µg/mL
solubility at 2 h ([5]; simulated gastric fluid, SGF): 5990 µg/mL
solubility at 4 h ([5]; simulated gastric fluid, SGF): 5080 µg/mL
solubility at 24 h ([5]; simulated gastric fluid, SGF): 5690 µg/mL
solubility at 1 h ([5]; FaSSIF): 7120 µg/mL
solubility at 2 h ([5]; FaSSIF): 7310 µg/mL
solubility at 4 h ([5]; FaSSIF): 7300 µg/mL
solubility at 24 h ([5]; FaSSIF): 7540 µg/mL
solubility at 1 h ([5]; FeSSIF): 6770 µg/mL
solubility at 2 h ([5]; FeSSIF): 7030 µg/mL
solubility at 4 h ([5]; FeSSIF): 7340 µg/mL
solubility at 24 h ([5]; FeSSIF): 7780 µg/mL
solubility at 1 h ([5]; water, H2O): 5260 µg/mL
solubility at 2 h ([5]; water, H2O): 5340 µg/mL
solubility at 4 h ([5]; water, H2O): 5240 µg/mL
solubility at 24 h ([5]; water, H2O): 5560 µg/mL
adhesiveness compared with the prior art solid [6]: superior to the prior art solid
intrinsic dissolution rate compared with the solid in the prior art [7]: higher dissolution rate than the solid in the prior art
flowability ([8]; inferred from crystal habit): good flowability
crystal habit ([8]; polarized light microscopy): rod-like particles
